One experiment deals with T1, c-Src (Homo sapiens, UniProt P12931).
T1 construct: purchased Upstate Biotechnologies
As to the kind of experiment: c-Src Kinase Assay (ELISA format). It is filed as biochemical. The essentials: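 Partially purified Src preincubated with compound and biotinylated peptide 10 min at 30 °C in Tris-HCl pH 7.5 with MgCl2, EGTA, vanadate; ATP-started reaction ran 1 h at 30 °C, EDTA-stopped. Phosphopeptide captured on streptavidin, detected by HRP anti-phosphotyrosine; % inhibition = (1 − Abs/Abs(max)) × 100.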
Background: ELISA stands for enzyme-linked immunosorbent assay.

In experiment [1] the test system is Rat2 fibroblasts stably transformed with a plasmid containing a CMV promotor controlled v-Src/Hu c-Src fusion gene. Put plainly: Anchorage Independent Src-transformed Fibroblast Proliferation Assay.
The mark [2] stands for this setting: Rattus norvegicus, Rat2, 120 h, read-out: anch-indep src-tx fib IC50, suspension growth, MTS on Day 5.
Where [3] appears, read: read-out: anch-indep src-tx fib IC50, suspension growth, MTS on Day 5.

“And” between values parts separate entries of the source, which are not always exact repeats. Equal entries are not always repeated. Where two headings read alike, the source gives them in different places. Where only a bound is given, the exact number is not on record here.

Turning to `N#Cc1cnc2cc(-c3ccc(CN4CCOCC4)o3)ccc2c1Nc1ccc(Cl)cc1Cl` [Example 13, 4-(2,4-Dichloroanilino)-7-[5-(4-morpholinylmethyl)-2-furyl]-3-quinolinecarbonitrile], the IC50 (commonly the point on the concentration scale where inhibition reaches its midpoint) against c-Src is 10.4 nM and 4 nM; in experiment [1] (setting [2]), 1510 nM; in experiment [1] (setting [3]), 1590 nM.
With `COc1cc(Nc2c(C#N)cnc3cc(-c4ccc(CO)n4C)ccc23)c(Cl)cc1Cl` [Example 162, 4-(2,4-dichloro-5-methoxyanilino)-7-[5-(hydroxymethyl)-1-methyl-1H-pyrrol-2-yl]-3-quinolinecarbonitrile], the values for the IC50 (on c-Src; in experiment [1] (setting [2])) were 76 nM and more than 10000 nM, respectively.
As to `COc1cc(Nc2c(C#N)cnc3cc(-c4ccc[nH]4)ccc23)c(Cl)cc1Cl` [Example 104, 4-(2,4-Dichloro-5-methoxyanilino)-7-(1H-pyrrol-2-yl)-3-quinolinecarbonitrile], the IC50 came out at 14 nM on c-Src and 560 nM in experiment [1] (setting [2]).
The corresponding values for `COc1cc(Nc2c(C#N)cnc3cc(-c4ccc(CN5CCCCC5C(=O)O)cc4)ccc23)c(Cl)cc1Cl` (centres unmarked) [Example 147, 1-{4-[3-cyano-4-(2,4-dichloro-5-methoxyanilino)-7-quinolinyl]benzyl}-2-piperidinecarboxylic acid] are 0.47 nM and 4600 nM.
Regarding `COc1cc(Nc2c(C#N)cnc3cc(-c4ccc(-c5ccccc5)cc4)ccc23)c(Cl)cc1Cl` [Example 165, 7-[1,1'-biphenyl]-4-yl-4-(2,4-dichloro-5-methoxyanilino)-3-quinolinecarbonitrile], at 0.01 µM the inhibition against c-Src (at 10 nM) was 28%. Besides, the 50% inhibitory concentration (IC50) in experiment [1] (setting [2]) was more than 10000 nM.
Consider `COc1cc(Nc2c(C#N)cnc3cc(-c4ccc(C=O)o4)ccc23)c(Cl)cc1Cl` [Example 6, 4-(2,4-Dichloro-5-methoxyanilino)-7-(5-formyl-2-furyl)-3-quinolinecarbonitrile], for which the IC50 on c-Src came out at 4 nM; in experiment [1] (setting [2]) it was 1600 nM.
`COc1cc(Nc2c(C#N)cnc3cc(/C=C/c4ccccc4)ccc23)c(Cl)cc1Cl` [Example 139, 4-(2,4-dichloro-5-methoxyanilino)-7-[(E)-2-phenylethenyl]-3-quinolinecarbonitrile]: the IC50 at c-Src was 300 nM and 340 nM; in experiment [1] (setting [2]), more than 10000 nM.
Consider `COc1cc(Nc2c(C#N)cnc3cc(-c4cc(CN5CCOCC5)c(CN5CCOCC5)s4)ccc23)c(Cl)cc1Cl` [Example 20, 7-[4,5-Bis(4-morpholinylmethyl)-2-thienyl]-4-(2,4-dichloro-5-methoxyanilino)-3-quinolinecarbonitrile], for which the IC50 at c-Src was 1.1 nM and 0.8 nM; in experiment [1] (setting [2]) it was 40 nM; in experiment [1] (setting [3]), 30 nM.
Take `N#Cc1cnc2cc(C=CCCCN3CCOCC3)ccc2c1Nc1ccc(Cl)cc1Cl` (mixture of isomers) [Example 12, 4-(2,4-Dichloroanilino)-7-[(E/Z)-5-(4-morpholin)-1-pentenyl]-3-quinolinecarbonitrile]: the half-maximal inhibitory concentration (IC50) on c-Src was 77 nM; in experiment [1] (setting [2]), more than 10000 nM.
Turning to `COc1cc(Nc2c(C#N)cnc3cc(-c4csc(CN5CCOCC5)c4)ccc23)c(Cl)cc1F` [Example 79, 4-(2-chloro-4-fluoro-5-methoxyanilino)-7-[5-(4-morpholinylmethyl)-3-thienyl]-3-quinolinecarbonitrile], the values for the IC50 (on c-Src; in experiment [1] (setting [2])) were 1.7 nM and 130 nM, respectively.
Regarding `COc1cc(Nc2c(C#N)cnc3cc(-c4ccc(CN5CCOCC5)o4)ccc23)c(Cl)cc1Cl` [Example 53, 4-(2.4-Dichloro-5-methoxyanilino)-7-[5-(4-morpholinylmethyl)-2-furyl]-3-quinolinecarbonitrile], the IC50 against c-Src is 2.9 nM; in experiment [1] (setting [2]), 250 nM.
Regarding `COc1cc(Nc2c(C#N)cnc3cc(-c4ccc(CN5CCOCC5)n4C)ccc23)c(Cl)cc1Cl` [Example 70, 4-(2,4-Dichloro-5-methoxyanilino)-7-[1-methyl-5-(4-morpholinylmethyl)-1H-pyrrol-2-yl]-3-quinolinecarbonitrile], the figures for the IC50 (against c-Src; in experiment [1] (setting [2])) were 25 nM and 6000 nM, respectively.
The corresponding values for `COc1cc(Nc2c(C#N)cnc3cc(-c4ccc(CNCCS(=O)(=O)c5ccccc5)o4)ccc23)c(Cl)cc1Cl` [Example 58, 4-(2,4-Dichloro-5-methoxyanilino)-7-[5-({[2-(phenylsulfonyl)ethyl]amino}methyl)-2-furyl]-3-quinolinecarbonitrile] are 11 nM and 5100 nM.
Take `COc1cc(Nc2c(C#N)cnc3cc(/C=C/C(=O)OC(C)(C)C)ccc23)c(Cl)cc1Cl` [Example 142, tert-butyl (E)-3-[3-cyano-4-(2,4-dichloro-5-methoxyanilino)-7-quinolinyl]-2-propenoate]: the IC50 was 31 nM on c-Src and more than 10000 nM in experiment [1] (setting [2]).
The corresponding values for `COC(=O)C1CCN(Cc2ccc(-c3ccc4c(Nc5cc(OC)c(Cl)cc5Cl)c(C#N)cnc4c3)cc2)CC1` [Example 231, methyl 1-{4-[3-cyano-4-(2,4-dichloro-5-methoxy-anilino)-7-quinolinyl]benzyl}-4-piperidinecarboxylate] are 6.8 nM and 390 nM.
As to `COc1cc(Nc2c(C#N)cnc3cc(-c4ccc(CNCCS(=O)(=O)c5ccccc5)cc4)ccc23)c(Cl)cc1Cl` [Example 85, 4-(2,4-Dichloro-5-methoxyanilino)-7-[4-({[2-(phenylsulfonyl)ethyl]amino}methyl)phenyl]-3-quinolinecarbonitrile], the half-maximal inhibitory concentration (IC50) was 36 nM and 41 nM at c-Src; 10200 nM in experiment [1] (setting [2]).
Consider `CCOC(=O)C1CCCN(Cc2ccc(-c3ccc4c(Nc5cc(OC)c(Cl)cc5Cl)c(C#N)cnc4c3)cc2)C1` (centres unmarked) [Example 148, ethyl 1-(4-{3-cyano-4-[(2,4-dichloro-5-methoxyphenyl)amino]-7-quinolinyl}benzyl)-3-piperidinecarboxylate], for which the concentration for half-maximal inhibition (IC50) on c-Src turned out to be 8.6 nM; in experiment [1] (setting [2]) it was 2100 nM.
Take `COc1cc(Nc2c(C#N)cnc3cc(-c4ccc(CN5CCC(C(=O)O)CC5)cc4)ccc23)c(Cl)cc1Cl` [Example 237, 1-{4-[3-cyano-4-(2,4-dichloro-5-methoxyanilino)-7-quinolinyl]benzyl}-4-piperidinecarboxylic acid]: the IC50 is 0.18 nM (2×) and 0.55 nM at c-Src; 490 nM in experiment [1] (setting [2]); 520 nM and 410 nM in experiment [1] (setting [3]).
As to `COc1cc(Nc2c(C#N)cnc3cc(-c4ccc(CNCCS(C)(=O)=O)n4C)ccc23)c(Cl)cc1Cl` [Example 73, 4-(2,4-Dichloro-5-methoxyanilino)-7-[1-methyl-5-({[2-(methylsulfonyl)ethyl]amino}methyl)-1H-pyrrol-2-yl]-3-quinolinecarbonitrile], the IC50 against c-Src is 58 nM and 75 nM; in experiment [1] (setting [2]) it was more than 10000 nM.
Consider `COc1ccc(Cl)c(Nc2c(C#N)cnc3cc(-c4ccc(CN5CCOCC5)cc4)ccc23)c1` [Example 236, 4-(2-chloro-5-methoxyanilino)-7-[4-(4-morpholinylmethyl)phenyl]-3-quinolinecarbonitrile], for which the IC50 at c-Src amounted to 3 nM; in experiment [1] (setting [2]) it was 570 nM.
In the case of `COc1cc(Nc2c(C#N)cnc3cc(-c4ccc(CN5CCC(CC(=O)O)CC5)cc4)ccc23)c(Cl)cc1Cl` [Example 100, (1-{4-[3-Cyano-4-(2,4-dichloro-5-methoxyanilino)-7-quinolinyl]benzyl}-4-piperidinyl)acetic acid], the IC50 at c-Src was determined as 0.57 nM; in experiment [1] (setting [2]), 340 nM; in experiment [1] (setting [3]) it was 400 nM.
As for `CCN1CCN(c2ccc(-c3ccc4c(Nc5cc(OC)c(Cl)cc5Cl)c(C#N)cnc4c3)nc2)CC1` [Example 179, 4-[(2,4-dichloro-5-methoxyphenyl)amino]-7-[5-(4-ethyl-1-piperazinyl)-2-pyridinyl]-3-quinolinecarbonitrile], the 50% inhibitory concentration (IC50) at c-Src amounted to 0.23 nM; in experiment [1] (setting [2]), 270 nM.
The corresponding values for `COc1cc(Nc2c(C#N)cnc3cc(-c4ccc(CN5CCCCC5)s4)ccc23)c(Cl)cc1Cl` [Example 78, 4-(2,4-Dichloro-5-methoxyanilino)-7-[5-(1-piperidinylmethyl)-2-thienyl]-3-quinolinecarbonitrile] are 1.3 nM and 140 nM.
For `COc1cc(Nc2c(C#N)cnc3cc(-c4ccc(CN5CCOCC5)cc4)ccc23)c(Cl)cc1C` [Example 234, 4-(2-chloro-5-methoxy-4-methylanilino)-7-[4-(4-morpholinylmethyl)phenyl]-3-quinolinecarbonitrile], in that order: 7.2 nM and 720 nM.
Consider “4-(2.4-Dichloro-5-methoxyanilino)-7-(3-formyl)-3-guinolinecarbonitrile [Example 112]”, for which the IC50 was 36 nM at c-Src and 7300 nM in experiment [1] (setting [3]).
Take `COc1cc(Nc2c(C#N)cnc3cc(-c4cccc(CCN5CCOCC5)c4)ccc23)c(Cl)cc1Cl` [Example 28, 4-(2,4-Dichloro-5-methoxyanilino)-7-{3-[2-(4-morpholinyl)ethyl]phenyl}-3-quinolinecarbonitrile]: the IC50 at c-Src came to 25 nM; in experiment [1] (setting [2]), 4100 nM.
For `CCOC(=O)CC1CCN(Cc2ccc(-c3ccc4c(Nc5cc(OC)c(Cl)cc5Cl)c(C#N)cnc4c3)cc2)CC1` [Example 144, ethyl (1-{4-[3-cyano-4-(2,4-dichloro-5-methoxyanilino)-7-quinolinyl]benzyl}-4-piperidinyl)acetate], in that order: 4 nM and 92 nM.
The corresponding values for `COc1cc(Nc2c(C#N)cnc3cc(-c4sccc4C=O)ccc23)c(Cl)cc1Cl` [Example 163, 4-(2,4-dichloro-5-methoxyanilino)-7-(3-formyl-2-thienyl)-3-quinolinecarbonitrile] are more than 1000 nM and more than 10000 nM.
For `COc1cc(Nc2c(C#N)cnc3cc(-c4cc5ccccc5o4)ccc23)c(Cl)cc1Cl` [Example 119, 7-(1-Benzofuran-2-yl)-4-(2,4-dichloro-5-methoxyanilino)-3-quinolinecarbonitrile], in that order: 130 nM and more than 10000 nM.

The values are drawn from patent publication EP1268431B1 (Wyeth, priority 2000, dated 2001).
